Measurements from paper PMC4393083, “Antiviral Activity and Possible Mechanism of Action of Constituents Identified in Paeonia lactiflora Root toward Human Rhinoviruses” (PLoS ONE, 2015).
Where two headings read alike, the source gives them in different places.

Experiments:
HRV = details: read-out: IC50 (anti-HRV); cited from earlier work
[1] = Cytotoxicity MTT assay in HeLa cells; type: cell-based; details: human, tetrazolium assay, read-out: CC50 (95% CL)
Experimental: (§1) The cytotoxicity of the test materials to two human cell lines was evaluated using an MTT assay described previously by Morgan. In brief, a 10× stock solution of MTT was prepared by adding 5 mg/mL MTT in phosphate-buffered saline (PBS) (pH 7.4). The stock solution was sterile-filtered and stored at −20°C. HeLa and MRC5 cells were seeded onto 96-well culture plates at a density of 3 × 10^4 cells per well for 1 day. The culture medium was removed and the plates with monolayer cells were replaced with media containing several different concentrations (1–1000 μg/mL) of the test materials in dimethylsulfoxide (DMSO). After incubation at 37°C and 5% CO2 for 2 days, the culture plates were then washed once with 200 μL PBS. A volume of 100 μL medium containing 0.05% MTT were added to each well and then incubated for 4 h at the same condition. After then, MTT solution was removed and 150 μL DMSO was added to each well. Finally, the plate was shaken for 15 min to dissolve the purple formazan crystals that had formed. Absorbance was read at 560 nm by using a VersaMax microplate reader (Molecular Devices, Sunnyvale, CA) with a reference absorbance at 670 nm.
(§2) The CC50 and IC50 values were determined using GraphPad Prism 5 software program (GraphPad Software, La Jolla, CA). […] The selectivity index (SI) was determined as the ratio of CC50 to IC50 [23]. All data represent the mean ± SD of duplicate or triplicate samples of three independent experiments. […] Data from two groups were analyzed by a Student’s t-test, and multiple groups were analyzed by a one-way analysis of variance and Bonferroni multiple comparison post-test.

HRV-2 [2] = experiment: Cytopathic effect inhibition assay (MTT), HRV-2 in MRC5 cells; type: cell-based, human rhinovirus; details: HRV-2 in MRC5 cells
Experimental: (§3) Monolayers of HeLa and MRC5 cells were seeded onto a 96-well culture plate as stated previously. Subsequently, 90 μL media containing several different concentrations (1–1000 μg/mL) of each test material in DMSO was put into the wells, and then 10 μL of 10×TCID50 of the virus stock was added to produce an appropriate CPE within 2 days after infection. Ribavirin served as a reference control and was similarly prepared. Negative controls consisted of the DMSO solution. Viral inhibition rate (VIR) (%) was calculated according to the formula [21], VIR = (A tV—A cV)/(A cd—A cV) × 100, where A tV is the optical density measured with a given concentration of the test compound in HRV infected cells; A cV is the optical density measured for the control untreated HRV infected cells; A cd is the optical density measured for the control untreated HRV uninfected cells.
(§4) The CC50 and IC50 values were determined using GraphPad Prism 5 software program (GraphPad Software, La Jolla, CA). […] The selectivity index (SI) was determined as the ratio of CC50 to IC50 [23]. All data represent the mean ± SD of duplicate or triplicate samples of three independent experiments. Statistical analyses were carried out using SAS 9.13 program (SAS Institute, Cary, NC). Data from two groups were analyzed by a Student’s t-test, and multiple groups were analyzed by a one-way analysis of variance and Bonferroni multiple comparison post-test.

MRC5 cells = experiment: Cytotoxicity MTT assay in MRC5 cells; type: cell-based, human
Experimental: as §1, §2

[3] = Cytotoxicity MTT assay in MRC5 cells; type: cell-based, human; details: human, tetrazolium assay, read-out: CC50 (95% CL)
Experimental: as §1, §2

[4] = test system: two HRVs (HRV-2 and HRV-4); experiment: Cytopathic effect inhibition assay, summary over both serotypes; type: cell-based, human rhinovirus; details: Rhinovirus A; range over HRV-2 and HRV-4, HeLa and MRC5 cells; read-out: IC50 toward two HRVs (range)
Experimental: as §3, §4

HRV-2 [5] = experiment: Cytopathic effect inhibition assay (MTT), HRV-2 in HeLa cells; type: cell-based, human rhinovirus; details: read-out: IC50 (95% CL) HRV-2
Experimental: as §3, §4

HRV-4 [6] = experiment: Cytopathic effect inhibition assay (MTT), HRV-4 in MRC5 cells; type: cell-based, human rhinovirus; details: HRV-4 in MRC5 cells
Experimental: as §3, §4

HRV-4 [7] = experiment: Cytopathic effect inhibition assay (MTT), HRV-4 in HeLa cells; type: cell-based, human rhinovirus; details: Human rhinovirus sp., HRV4, HeLa, read-out: IC50 (95% CL) HRV-4
Experimental: Extraction procedures of air-dried root of P. lactiflora were performed as described previously by Ngan et al.. For isolation of active principles, viral CPE inhibition assay toward HRV-4 in HeLa cell was used. […]. Column fractions were monitored by TLC on silica gel plates developed with chloroform and methanol (7:3 by volume) mobile phase. Fractions with similar R f values on the TLC plates were pooled. Active fractions 4 to 5 (EI, 2.44 g) and 7 (EII, 0.569 g) were obtained. The active fraction EI was rechromatographed on a silica gel column by elution with chloroform and methanol (70:30 by volume) to give nine fractions (each about 450 mL). A preparative HPLC was used for separation of constituents from the active fractions 3 to 5 (0.176 g). The column was a 4.6 mm i.d. × 150 mm Eclipse XDB-C18 (Agilent, Santa Clara, CA) using a mobile phase of methanol and water (3:7 by volume) at a flow rate of 0.5 mL/min. Chromatographic separations were monitored using a UV detector at 260 nm. […]. The three antiviral principles were characterized as paeonol (PA) (1), gallic acid (GA) (2), and 1,2,3,4,6-penta-O-galloyl-β-D-glucopyranose (PGG) (3) (Fig 1) by spectroscopic analyses, including MS and NMR. PA (1): compound 1 was isolated as an antibacterial principle from P. lactiflora root in our previous work, and the spectral data of compound 1 was largely identical to the published data. GA (2) was identified on the basis of the following evidence: white powder. UV (MeOH): λmax nm = 260. FT-IR: v max cm^–1 = 3491–3063 (OH stretch), 1608 (aromatic C = C). […] The interpretations of proton and carbon signals of compound 2 were largely consistent with those of Sakar et al.. PGG (3): compound 3 was isolated as an antibacterial principle from P. lactiflora root in our previous work, and the spectral data of compound 3 was largely identical to the published data.
as §3, §4

C[C@@H]1CC[C@]2(C(=O)O)CC[C@]3(C)C(=CC[C@@H]4[C@@]5(C)C[C@@H](O)[C@H](OC(=O)/C=C/c6ccc(O)c(O)c6)C(C)(C)[C@@H]5CC[C@]43C)[C@@H]2[C@]1(C)O (relative stereo) [3-O-trans-caffeoyltormentic acid]
IC50 (HRV): 30.7 µM

COc1cc(O)c2c(=O)c(OC)c(-c3ccc(O)c(OC)c3)oc2c1 [4ʹ,5-dihydroxy-3ʹ,3,7-trimethoxyflavone]
IC50 (HRV): 0.29 µM

COc1cc2ccc(=O)oc2c(OC)c1OC [6,7,8-trimethoxycoumarin]
IC50 (HRV): 12 µM

O=C(O)c1cc(O)c(O)c(O)c1 [GA, gallic acid]
IC50 (HRV): ~295 µM
CC50 at 2 days [1]: 1500 µM
IC50 (95% CL) HRV-2 (HRV-2 [2]): ineffective
concentration toxic to cells (MRC5 cells): ≥ 290 µM
CC50 at 2 days [3]: 218 µM
IC50 [4]: 427 to 448 µM
IC50 (HRV-2 [5]; Rhinovirus A, HRV2, HeLa): 427 µM
IC50 (HRV-2 [5]): 427 µM
IC50 (95% CL) HRV-4 (HRV-4 [6]): ineffective
IC50 (HRV-4 [7]): 448 µM

COc1cc2c(c(O)c1OC)c(=O)c1ccccc1n2C [arborinine]
IC50 (HRV): 3.19 µM

COc1cc2cc(Oc3ccc4ccc(=O)oc4c3)c(=O)oc2cc1OC [daphnoretin methyl ether]
IC50 (HRV): 97.1 µM

C=C1CC[C@@H](O)C(C)(C)C1CC/C(C)=C/COc1ccc2ccc(=O)oc2c1 (stereo partly drawn) [farnesiferol B]
IC50 (HRV): ~2.61 µM

C/C(=C\COc1ccc2ccc(=O)oc2c1)CC[C@@H]1C(C)(C)[C@H]2CC[C@]1(C)O2 [farnesiferol C]
IC50 (HRV): ~2.61 µM

COc1cc2c(cc1OC)-c1c(OC)c(OC)cc3c1[C@H](C2)N(C)CC3 [glaucine]
IC50 (HRV): 22 µM

O=c1c(-c2ccc(O)c(O)c2)coc2cc(O[C@@H]3O[C@H](CO)[C@@H](O)[C@H](O)[C@H]3O)cc(O)c12 [orobol 7-O-D-glucoside]
IC50 (HRV): 1.29 to 19.6 µM

C=C1CCC2CC(C(=C)C)C2(C)CCC(C(=C)C(=O)O)CC1CC=C(C)C (stereo not drawn) [raoulic acid]
IC50 (HRV): 0.51 µM

(S)-ribalinine
IC50 (HRV): 83 µM
